Data reported in patent publication US9567641B2, “Combination therapy for the treatment of cancer using an anti-C-met antibody” (SAMSUNG ELECTRONICS CO., LTD., priority 2013, dated 2017).

Experiments:
[1] = test system: MKN45 gastric cancer cell line; assay: Cell viability, CellTiter Glo, combination with L3-1Y/IgG2 antibody; type: cell-based; settings: ABT-263 5 uM co-treated with L3-1Y/IgG2 0.08 ug/ml, 72 h
[2] = test system: MKN45 gastric cancer cell line with acquired resistance against L3-1Y/IgG2 antibody; assay: Cell viability, CellTiter Glo, resistance-acquired cell line; type: cell-based; settings: 72 h
Method: To see whether the treatment RAF1 siRNA can overcome resistance acquired due to the repetitive treatment of an antibody, tests were carried out using MKN45 gastric cancer cell line which had been treated by L3-1Y/IgG2 antibody for 3 months or longer and acquired resistance against it. The resistance-acquired MKN45 gastric cancer cell line was prepared as follows: MKN45 cells (JCRB, JCRB0254) were treated with L3-1Y/IgG2 antibody in amounts being increased over 3 months or longer. The amount of L3-1Y/IgG2 antibody to be treated started from its initial treatment concentration of 1 ug/ml and was increased up to 10 ug/ml until resistance occurred. To confirm the acquisition of L3-1Y/IgG2 antibody resistance, the resistance-acquired clones were treated or not treated with L3-1Y/IgG2 antibody and then incubated, followed by CTG assays.
As a control group, All Negative control siRNA (Qiagen, cat. no. 1027281) was used, and as a target siRNA, a mixture of two kinds of siRNAs (see Table 7) that had effects during the screening was used. […]
(§1) 5000 cells of MKN45 cells which have acquired resistance against L3-1Y/IgG2 antibody were seeded onto a 96-well plate, and 24 hours after, the plate was treated with L3-1Y/IgG2 antibody and an ITGB3 inhibitor, cilengitide (Merck KGaA, EMD 121974). 72 hours later after the treatment, a change in the number of cells was measured using CellTiter Glo assay. The MKN45 cells which have acquired resistance against L3-1Y/IgG2 antibody were prepared referring to Example 4.3. Cilengitide was treated at a fixed concentration of 10 uM, and the L3-1Y/IgG2 antibody was treated by ⅕ dilution each time starting from 2 ug/ml. For comparison, the same test was conducted using L3-1Y/IgG2 antibody alone.
as §1, with “AKT” for “ITGB3”, “MK-2206” for “cilengitide”, “& Co Inc).” for “KGaA, EMD 121974).”, “MK-2206” for “Cilengitide”, “5” for “10”
To verify whether or not the resistance acquired by repetitive administration of anti-c-Met antibody can be overcome by BCL2L1 inhibition, L3-1Y/IgG2 antibody resistance acquired MKN45 cells, where the resistance against L3-1Y/IgG2 antibody is acquired by treating MKN45 gastric cancer cells (JCRB, JCRB0254) with the L3-1Y/IgG2 antibody for at least 3 months, were used. The L3-1Y/IgG2 antibody resistance acquired MKN45 gastric cancer cells were prepared referring to Example 4.3. […]

[3] = test system: L3-1Y/IgG2 antibody resistance acquired EBC1 lung cancer cells; assay: as above; type: cell-based; settings: ABT-263 0.5 uM co-treated with L3-1Y/IgG2 (1/5 dilutions from 2 ug/ml), 72 h
Method: To verify whether or not the resistance acquired by repetitive administration of anti-c-Met antibody can be overcome by BCL2L1 inhibition, L3-1Y/IgG2 antibody resistance acquired EBC1 cells, where the resistance against L3-1Y/IgG2 antibody is acquired by treating EBC1 lung cancer cells (JCRB, JCRB0820) with the L3-1Y/IgG2 antibody for at least 3 months, were used. The L3-1Y/IgG2 antibody resistance acquired EBC1 lung cancer cells were prepared referring to Example 4.3.
5000 cells of the L3-1Y/IgG2 antibody resistance acquired EBC1 cells were seeded onto a 96-well plate and 24 hours after, the plate was treated with a BCL2 family inhibitor, ABT-263 (Abbott Laboratories) and 72 hours later after the antibody treatment, a change in the number of cells was measured using CellTiter Glo assay. ABT-263 was treated at a fixed concentration of 0.5 uM, and the L3-1Y/IgG2 antibody was treated by ⅕ dilution each time starting from 2 ug/ml.

[4] = test system: HCC1806 breast cancer cells; assay: Cell viability, CellTiter Glo, combination with L3-1Y/IgG2 antibody; type: cell-based; settings: 72 h
Method: The efficacy of the combination administration of ITGB3 siRNA and L3-1Y/IgG2 antibody was examined in a breast cancer cell line on which the anti-c-Met antibody alone has no effects. For this, HCC1806 (ATCC, CRL-2335) and HCC1954 (ATCC, CRL-2338) cells were used.
As a control group, All Negative control siRNA (Qiagen, cat. no. 1027281) was used, and as a target siRNA, a mixture of two kinds of siRNAs (see Table 7) that had effects during the screening was used. Transfection was carried out by the same procedures as Example 3.1 and after 24 hours, the cultured cells were treated with L3-1Y/IgG2 antibody at 0 ug/ml, 0.016 ug/ml, 0.08 ug/ml, 0.4 ug/ml, or 2 ug/ml. 72 hours later after the treatment, 100 uL of CellTiter Glo solution (Promega, G7572) was added to each well, which was allowed to stay at a room temperature for 30 min. The number of cells was counted via luminescence signals, which were recorded using Envision 2104 Multi-label Reader (Perkin Elmer).
To verify the effect of the combination therapy using ITGB3 inhibitor and anti-c-Met antibody in breast cancer cells on which the anti-c-Met antibody has no effects, HCC1806 (ATCC, CRL-2335) cells were used. The HCC 1806 cells are a cell line known to have high amounts of c-Met.
5000 cells of HCC1806 cells were seeded onto a 96-well plate, and 24 hours after, the plate was treated with L3-1Y/IgG2 antibody and an ITGB3 inhibitor, cilengitide (Merck KGaA, EMD 121974). 72 hours later after the treatment, a change in the number of cells was measured using CellTiter Glo assay. Cilengitide was treated at a fixed concentration of 10 uM, and the L3-1Y/IgG2 antibody was treated by ⅕ dilution each time starting from 2 ug/ml. For comparison, the same test was conducted using L3-1Y/IgG2 antibody alone.
The efficacy of combination administration was examined in a breast cancer cell line on which the anti-c-Met antibody has no effects. For this, HCC1806 (ATCC, CRL-2335) cells were used.
5000 HCC1806 cells were seeded onto a 96-well plate and 24 hours after, the plate was treated with L3-1Y/IgG2 antibody and an AKT inhibitor, MK-2206 (Merck & Co Inc) and 72 hours later after the antibody treatment, a change in the number of cells was measured using CellTiter Glo assay. MK-2206 was treated at a fixed concentration of 10 uM, and the L3-1Y/IgG2 antibody was treated by ⅕ dilution each time starting from 2 ug/ml. For comparison, the same test was conducted using L3-1Y/IgG2 antibody alone.

c-Met = c-Met (Homo sapiens, UniProt P08581); assay: Affinity / specificity for c-Met; type: binding; settings: expressed scFv
Sequence of c-Met (P08581 25-1390): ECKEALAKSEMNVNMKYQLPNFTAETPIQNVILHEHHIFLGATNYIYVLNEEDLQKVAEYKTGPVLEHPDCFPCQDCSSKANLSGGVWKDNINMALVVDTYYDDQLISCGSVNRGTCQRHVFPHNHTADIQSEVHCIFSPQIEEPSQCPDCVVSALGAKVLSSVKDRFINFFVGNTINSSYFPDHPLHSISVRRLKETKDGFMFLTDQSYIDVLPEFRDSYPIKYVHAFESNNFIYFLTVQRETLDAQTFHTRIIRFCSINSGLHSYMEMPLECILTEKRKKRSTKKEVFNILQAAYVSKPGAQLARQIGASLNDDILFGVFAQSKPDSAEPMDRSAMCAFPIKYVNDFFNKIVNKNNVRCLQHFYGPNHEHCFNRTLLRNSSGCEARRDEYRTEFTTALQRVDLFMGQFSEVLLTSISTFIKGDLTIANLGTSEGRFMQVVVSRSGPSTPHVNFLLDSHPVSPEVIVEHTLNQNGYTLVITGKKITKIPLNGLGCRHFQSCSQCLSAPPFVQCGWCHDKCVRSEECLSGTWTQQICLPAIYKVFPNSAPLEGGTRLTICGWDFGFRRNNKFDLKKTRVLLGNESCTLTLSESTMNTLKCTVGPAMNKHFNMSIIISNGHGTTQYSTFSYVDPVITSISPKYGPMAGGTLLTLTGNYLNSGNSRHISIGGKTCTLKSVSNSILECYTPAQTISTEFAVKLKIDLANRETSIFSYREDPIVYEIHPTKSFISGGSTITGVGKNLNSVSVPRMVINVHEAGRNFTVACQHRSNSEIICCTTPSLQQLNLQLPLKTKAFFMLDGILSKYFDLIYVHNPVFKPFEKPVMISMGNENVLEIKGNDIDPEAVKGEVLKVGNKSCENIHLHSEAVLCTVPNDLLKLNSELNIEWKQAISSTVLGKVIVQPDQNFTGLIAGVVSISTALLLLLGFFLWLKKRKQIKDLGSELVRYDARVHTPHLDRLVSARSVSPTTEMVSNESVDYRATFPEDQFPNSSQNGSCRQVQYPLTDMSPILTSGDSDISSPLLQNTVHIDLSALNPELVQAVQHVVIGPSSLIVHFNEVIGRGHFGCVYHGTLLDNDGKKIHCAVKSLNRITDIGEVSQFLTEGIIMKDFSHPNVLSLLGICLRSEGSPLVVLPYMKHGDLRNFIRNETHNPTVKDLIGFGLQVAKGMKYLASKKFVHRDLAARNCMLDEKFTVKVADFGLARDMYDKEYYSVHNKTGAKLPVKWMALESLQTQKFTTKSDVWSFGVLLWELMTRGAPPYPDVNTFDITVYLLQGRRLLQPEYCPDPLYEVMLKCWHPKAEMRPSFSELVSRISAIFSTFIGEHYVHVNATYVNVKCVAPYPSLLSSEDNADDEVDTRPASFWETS

[5] = cilengitide 10 uM co-treated with L3-1Y/IgG2 (1/5 dilutions from 2 ug/ml)

Molecule: CC1(C)CCC(c2ccc(Cl)cc2)=C(CN2CCN(c3ccc(C(=O)NS(=O)(=O)c4ccc(N[C@H](CCN5CCOCC5)CSc5ccccc5)c(S(=O)(=O)C(F)(F)F)c4)cc3)CC2)C1 [ABT-263, 4-[4-[[2-(4-Chlorophenyl)-5,5-dimethyl-1-cyclohexen-1-yl]methyl]-1-piperazinyl]-N-[[4-[[(1R)-3-(4-morpholinyl)-1-[(phenylthio)methyl]propyl]amino]-3-[(trifluoromethyl)sulfonyl]phenyl]sulfonyl]benzamide]
- growth inhibitory effect (cell viability) [1]: increased compared to the case that the L3-1Y/IgG2 antibody was treated alone
- cancer cell growth inhibitory effect (cell viability) ([2]; ABT-263 2.5 uM co-treated with L3-1Y/IgG2 (1/5 dilutions from 2 ug/ml)): can be achieved
- cancer cell growth inhibitory effect (cell viability) [3]: can be achieved

Molecule: NC1(c2ccc(-c3nc4ccn5c(=O)[nH]nc5c4cc3-c3ccccc3)cc2)CCC1 [MK-2206, 8-(4-(1-aminocyclobutyl)phenyl)-9-phenyl-[1,2,4]triazolo[3,4-f][1,6]naphthyridin-3(2H)-one, reference compound]
- growth inhibitory effect (cell viability) ([2]; MK-2206 5 uM co-treated with L3-1Y/IgG2 (1/5 dilutions from 2 ug/ml)): exhibited
- cancer cell growth inhibitory efficacy (cell viability) ([4]; MK-2206 10 uM co-treated with L3-1Y/IgG2 (1/5 dilutions from 2 ug/ml)): exhibited

Molecule: CC(C)[C@H]1C(=O)N[C@@H](CCCNC(=N)N)C(=O)NCC(=O)N[C@@H](CC(=O)O)C(=O)N[C@H](Cc2ccccc2)C(=O)N1C [cilengitide, Cyclo(L-arginylglycyl-L-α-aspartyl-D-phenylalanyl-N-methyl-L-valyl), reference compound]
- growth inhibitory effect (cell viability) [2, 5]: exhibited
- growth inhibitory effect (cell viability) [4, 5]: exhibited

B1: scFv of huAbF46: scFv of huAbF46, VH-linker-VL, encoded by SEQ ID NO: 55 (protein)
scFv: EVQLVESGGGLVQPGGSLRLSCAASGFTFTDYYMSWVRQAPGKGLEWLGFIRNKANGYTTEYSASVKGRFTISRDNSKNTLYLQMNSLRAEDTAVYYCARDNWFAYWGQGTLVTVSSGLGGLGGGGSGGGGSGGSSGVGSDIQMTQSPSSLSASVGDRVTITCKSSQSLLASGNQNNYLAWHQQKPGKAPKMLIIWASTRVSGVPSRFSGSGSGTDFTLTISSLQPEDFATYYCQQSYSAPLTFGQGTKVEIKR
- specificity to c-Met (c-Met): specificity to c-Met
